Laboratory results from patent publication US8410150B2, “Inhibitors of carnitine palmitoyltransferase and treating cancer” (University Health Network, priority 2007, dated 2013).
Read-outs that look alike come from different tables or passages of the source.

Assays:
Test in all cases: Cell growth inhibition, SRB assay
Type in all cases: cell-based, human
[1] = tested on: A172; details: Homo sapiens
Method: (§1) Human cancer cells (MCF-7, H358, H460, HCT116 p53^+/+, HCT116 p53^−/−, A172, PC-3, DU-145 and SW626) were maintained in DMEM medium containing 10% Fetal Bovine Serum (FBS) (Invitrogen, Burlington, ON, Canada) and normal cells HMEC, 184A1, NHBE and PrEC were cultured in MEGM, MEGM plus transferring and cholera toxin, BEGM and PrEGM supplemented with various growth factors (Cambrex, Charles city, IA, USA), respectively.
(§2) Compounds were dissolved in DMSO and further diluted in cell culture medium for the experiments performed. Cells were seeded into 96-well plates with 1,500-5,000 cells/well according to cell growth rate. After 24 h, DMEM medium containing 10% FBS were changed to DMEM containing 3% FBS for cancer cells and additional 3% FBS were added into the culture medium for normal cells. The compound was added into the cell culture at the indicated concentrations, and the final concentration of DMSO was adjusted to a final concentration of 0.1%. Cells were subjected to either normoxic condition (20% O2) for 6 days or hypoxic condition (0.2% O2) for 2 days and then transferred to normoxic condition for 4 days. Cell viability was assessed by Sulforhodamine B (SRB) assay at Day 6.
(§3) Sulforhodamine B (SRB) (Sigma, Oakville, ON, Canada) is a water-soluble dye that binds to the basic amino acids of the cellular proteins. Thus, colorimetric measurement of the bound dye provides an estimate of the total protein mass that is related to the cell number. The cells were fixed in situ by gently aspirating off the culture media and adding 50 ul of cold 10% trichloroacetic Acid (TCA) per well and incubated at 4° C. for 30-60 min. The plates were washed five times with water and allowed to air dry for 5 min. 50 ul of 0.4% (w/v) SRB dissolved in 1% (v/v) acetic acid were added into each well, plates were then incubated at RT for 30 min for staining, washed four times with 1% acetic acid to remove any unbound dye and then allowed to air dry for 5 min. Stain was solubilized with 100 ul of 10 mM Tris pH 10.5 per well. Absorbance was read at 570 nm on a spectrophotometer. GI50 (compound concentration required for 50% of growth inhibition) was calculated using GraphPad Prism 4.0 software (GraphPad Software, Inc., San Diego, Calif., USA).
(§4) Cell viability of various cell lines treated with 3-carboxy-N,N,N-trimethyl-2-pentadecanamidopropan-1-aminium (“nPAC”) and compound of Examples S7, S63, S66, S90, S89, S67, S75 and S10 was also assessed in a manner as described above in Example 5.

[2] = tested on: MCF-7; details: Homo sapiens
Method: as §1, §2, §3, §4

[3] = tested on: PC-3; details: Homo sapiens
Method: as §1, §2, §3, §4

[4] = tested on: H358; details: Homo sapiens
Method: as §1, §2, §3, §4

[5] = tested on: SW626; details: Homo sapiens
Method: as §1, §2, §3, §4

[6] = tested on: SW620; details: Homo sapiens, SW-620; Colon SW620, 3% FBS
Method: as §2, §3, §4

[7] = tested on: A54; details: Homo sapiens; Lung A54, 3% FBS
Method: as §2, §3, §4

[8] = tested on: SW480; details: Homo sapiens; Colon SW480, 3% FBS
Method: as §2, §3, §4

[9] = tested on: Hs578T; details: Homo sapiens, Hs-578T; Breast Hs578T, 3% FBS
Method: as §2, §3, §4

[10] = tested on: HCT-15; details: Homo sapiens; Colon HCT-15, 3% FBS
Method: as §2, §3, §4

[11] = tested on: COLO-205; details: Homo sapiens; Colon COLO-205, 3% FBS
Method: as §2, §3, §4

[12] = A 172, Brain A172, 3% FBS, read-out: GI50
[13] = MCF7, 144 h, treated 6 days, SRB assay, mean±SD of 2 experiments (FIG. 1, 2), read-out: GI50 for MCF-7
[14] = MCF7, Breast MCF-7, 3% FBS, read-out: GI50
[15] = Prostate PC-3, 3% FBS, read-out: GI50
[16] = NCI-H358, 144 h, treated 6 days, SRB assay, mean±SD of 2 experiments (FIG. 1, 2), read-out: GI50 for H358
[17] = NCI-H358, Lung H358, 3% FBS, read-out: GI50
[18] = Ovarian SW626, 3% FBS, read-out: GI50

Compound | GI50 ([1]; A 172, 144 h, A172, normoxic condition (20% O2) for 6 days, read-out: GI50 Normoxi) | GI50 ([1]; A 172, A172, hypoxic condition (0.2% O2) for 2 days, then normoxic for 4 days, read-out: GI50 Hypoxia) | GI50 [1, 12] | GI50 ([1]; A 172, SRB assay, mean±SD of 2 experiments (FIG. 2), read-out: GI50 for A172) | GI50 ([2]; MCF7, 144 h, MCF-7, normoxic condition (20% O2) for 6 days, read-out: GI50 Normoxi) | GI50 [2, 13] | GI50 [2, 14] | GI50 ([2]; MCF7, MCF-7, hypoxic condition (0.2% O2) for 2 days, then normoxic for 4 days, read-out: GI50 Hypoxia) | GI50 ([3]; PC-3, SRB assay, mean±SD of 2 experiments (FIG. 2), read-out: GI50 for PC-3) | GI50 [3, 15] | GI50 [4, 16] | GI50 [4, 17] | GI50 ([5]; SW626, SRB assay, mean±SD of 2 experiments (FIG. 2), read-out: GI50 for SW626) | GI50 [5, 18] | GI50 [6] | GI50 [7] | GI50 [8] | GI50 [9] | GI50 [10] | GI50 [11]
CCCCCCCCc1ccc(NC(=O)N[C@H](CC(=O)[O-])C[N+](C)(C)C)cc1 [Example S7, (R)-3-(3-(4-octylphenyl)ureido)-4-(trimethylammonio)butanoate] | 3800 ± 500 nM | 1900 ± 800 nM | 3000 nM | 3800 ± 500 nM | 5300 ± 1300 nM | 5000 ± 1300 nM | 4500 nM | 2500 ± 600 nM | 800 ± 300 nM | 700 nM | 1000 ± 300 nM | 500 nM | 800 ± 700 nM | 800 nM | 1500 nM | 25000 nM | 800 nM | 33000 nM | 1300 nM | 900 nM
CCCCCCCOc1ccc(NC(=O)N[C@H](CC(=O)[O-])C[N+](C)(C)C)cc1 [Example S10, (R)-3-(3-(4-(heptyloxy)phenyl)ureido)-4-(trimethylammonio)butanoate] |  |  | 40000 nM |  |  | 1000 ± 100 nM | 44000 nM |  |  | 5300 nM | 4100 ± 1300 nM | 3400 nM |  | 15000 nM | 19000 nM | > 50000 nM | 9300 nM | > 50000 nM | 28000 nM | 4600 nM
CCCCCCCCCCOc1ccc(C(=O)N[C@H](CC(=O)O)C[N+](C)(C)C)cc1 [Example S63, (R)-3-(4-(decyloxy)benzamido)-4-(trimethylammonio)butanoate 2,2,2-trifluoroacetate] |  |  | 900 nM |  |  |  | 400 nM |  |  | 300 nM |  | 400 nM |  | 1200 nM | 500 nM | 14000 nM | 400 nM | 3700 nM | 500 nM | 300 nM
CCCCCCCCCCc1ccc(C(=O)N[C@H](CC(=O)[O-])C[N+](C)(C)C)cc1 [Example S66, (R)-3-(4-decylbenzamido)-4-(trimethylammonio)butanoate] |  |  | 1800 nM |  |  |  | 100 nM |  |  | 300 nM |  | 400 nM |  | 1500 nM | 600 nM | 28000 nM | 300 nM | 8200 nM | 1100 nM | 400 nM
CCCCCCCCCCOc1cccc(C(=O)N[C@H](CC(=O)[O-])C[N+](C)(C)C)c1 [Example S67, (R)-3-(3-(decyloxy)benzamido)-4-(trimethylammonio)butanoate] |  |  | 3600 nM |  |  |  | 700 nM |  |  | 1500 nM |  | 700 nM |  | 2700 nM | 5500 nM | 88000 nM | 700 nM | 17000 nM | 14000 nM | 2700 nM
CCCCCCCCCCc1ccc(S(=O)(=O)N[C@H](CC(=O)O)C[N+](C)(C)C)cc1 [Example S75, (R)-3-carboxy-2-(4-decylphenylsulfonamido)-N,N,N-trimethylpropan-1-aminium 2,2,2-trifluoroacetate] |  |  | 18000 nM |  |  |  | 11000 nM |  |  | 1500 nM |  | 2800 nM |  | 4100 nM | 4100 nM | 31000 nM | 1900 nM | 13000 nM | 5600 nM | 3600 nM
CCCCCCCCCCCCc1ccc(NS(=O)(=O)N[C@H](CC(=O)O)C[N+](C)(C)C)cc1 [Example S89, (R)-3-(N-(4-dodecylphenyl)sulfamoylamino)-4-(trimethylammonio)-butanoate] |  |  | 4100 nM |  |  |  | 4200 nM |  |  | 1600 nM |  | 1400 nM |  | 2300 nM | 1900 nM | 21000 nM | 1500 nM | 7300 nM | 2200 nM | 1400 nM
CCCCCCCCCCCCCCc1ccc(NS(=O)(=O)N[C@H](CC(=O)O)C[N+](C)(C)C)cc1 [Example S90, (R)-3-(N-(4-tetradecylphenyl)sulfamoylamino)-4-(trimethylammonio)-butanoate] |  |  | 6600 nM |  |  |  | 4000 nM |  |  | 1300 nM |  | 1100 nM |  | 3100 nM | 2400 nM | 21000 nM | 1300 nM | 8200 nM | 3300 nM | 2400 nM
